US10940126B2, “Inhibition of IL-8 in the treatment of pain and/or bone loss” (priority 2015, dated 2021)
Entries after “also recorded” stand apart in the source; their conditions may differ.

Legend:
[1] = cited from earlier work
neutrophil recruitment = conditions: cited from earlier work
[2] = in vivo; cited from earlier work
CXCR2 = target: T1, CXCR2 (Homo sapiens, UniProt P25025); conditions: relative to SB225002; cited from earlier work
T1 sequence (P25025 1-360): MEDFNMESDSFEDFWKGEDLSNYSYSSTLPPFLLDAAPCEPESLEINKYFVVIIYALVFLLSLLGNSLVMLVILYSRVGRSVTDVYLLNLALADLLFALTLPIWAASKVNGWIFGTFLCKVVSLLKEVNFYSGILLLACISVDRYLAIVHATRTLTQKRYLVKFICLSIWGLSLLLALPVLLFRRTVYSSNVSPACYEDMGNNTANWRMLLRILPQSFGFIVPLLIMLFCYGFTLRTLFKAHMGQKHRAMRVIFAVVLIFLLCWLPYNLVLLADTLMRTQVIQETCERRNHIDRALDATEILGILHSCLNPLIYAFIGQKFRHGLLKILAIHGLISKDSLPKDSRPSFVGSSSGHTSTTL

mice [3] = assay: Mechanical hypersensitivity: von Frey filaments, 50% withdrawal threshold of hind paws; assay type: in vivo
mice [4] = assay: Heat sensitivity, modified Hargreaves box; assay type: in vivo; conditions: mice i.v. monoclonal ACPA D10 and B2; reparixin 30 mg/kg/day s.c. six days; tested day 26
Text: Heat sensitivity was examined using a modified Hargreaves box ([…]. et al., 1997). Mice were placed individually in Plexiglas cubicles on the glass surface and allowed to habituate. A radiant heat stimulus was then applied from below to a hind paw until a motion sensor detects a brisk withdrawal and stops the stimulus. Elapsed time is automatically recorded with a cutoff at 20 seconds. Three measurements from each paw were averaged and presented as latency (in seconds) for the withdrawal.

mice [5] = assay: Cold sensitivity, acetone drop on hind paw; assay type: in vivo; conditions: mice i.v. monoclonal ACPA D10 and B2; reparixin 30 mg/kg/day s.c. six days; day 19
Experimental: To assess sensitivity to cold, the mice were placed in the same testing device as used for detection of mechanical hypersensitivity. After habituation, a 1 ml syringe was used to gently apply a drop of acetone to the plantar surface of the hind paw and the duration of the nocifensive behavior (lifting, shaking, biting, and licking the paw) was recorded. The test was repeated three times on each paw and the average was calculated.

ankle joints and tibia = assay: Joint histology and micro-CT (synovitis, bone erosion, cartilage); assay type: in vivo; conditions: mice
osteoclasts = assay: Osteoclast activation under IL-8 receptor blockade; conditions: blockade of IL-8 receptors
[6] = tested on: Cxcl1, Cxcl2 and other inflammatory factor mRNA; assay: Quantitative real-time PCR of ankle joint and plantar paw skin mRNA; assay type: in vivo, mice; conditions: hD10/B02 mAb 1 mg each; zoledronate 100 ug/kg
Experimental: Ankle joints and plantar paw skin of the hind legs were processed for gene expression analysis. Muscle and tendons were removed from ankle joints, which were then snap frozen and pulverized. Tissues were sonicated in TRIzol (Invitrogen) and RNA was extracted according to manufacturer's protocol. After complementary DNA (cDNA) synthesis, quantitative real-time PCR (Applied Biosystems) was performed using hydrolysis probes to determine the relative messenger RNA (mRNA) levels. Primers for chemokines Ccl2 (MCP1, Mm00441242_m1), Cxcl1 (Mm04207460_m1), Cxcl2 (Mm00436450_m1), Cxcl5 (Mm00436451_g1), inflammatory cytokines Tnf (Mm00443258_m1), Il1b (Mm00434228_m1), Il6 (Mm00446190_m1), mast cell proteases Mcpt4 (Mcp4, Mm00487636-g1), Tpsb2 (Mcp6, Mm01301240-g1), pro-inflammatory enzyme Cox2 (Mm00478374_m1), matrix metallo proteases Mmp2 (Mm00439498_m1), Mmp9 (Mm00442991_m1), Mmp13 (Mm00439491-m1), and reference gene Hprt1 (Mm01545399_m1) (all from Applied Biosystems) were used to determine threshold cycle values to calculate the number of cell equivalents in each sample with the standard curve method. Data was normalized to Hprt1 values and expressed as relative expression units (REU).

RA synovial fibroblasts = conditions: cited from earlier work
[7] = mice injected with hG09 or hC03, thresholds at baseline, 1.5, 3 and 6 hours

Compound: C[C@H](CO)Nc1nc(SCc2cccc(F)c2F)nc2[nH]c(=O)sc12 [AZD-8309, 5-[[(2,3-Difluorophenyl)methyl]thio]-7-[[(1R)-2-hydroxy-1-methylethyl]amino]-thiazolo[4,5-d]pyrimidin-2(3H)-one]
- Tolerability in clinical trials ([1]; human, in vivo): well tolerated

Compound: C[C@@H](C(N)=O)c1ccc(OS(=O)(=O)C(F)(F)F)cc1 [DF2162, 4-[(1R)-2-amino-1-methyl-2-oxoethyl]phenyl trifluoromethane sulfonate]
- CXCL1 and carrageenan-induced pain-like behavior (neutrophil recruitment; mice): blocked
- Neutrophil recruitment induced by injection of CXCL1 or carrageenan to the paw (neutrophil recruitment; mice): inhibits neutrophil recruitment
- Nociceptor sensitization (neutrophil recruitment; mouse, in vivo): does not directly affect nociceptor sensitization
- Results in pre-clinical studies of adjuvant-induced polyarthritis and bleomycin-induced pulmonary inflammation and fibrosis [2]: promising results

Compound: O=C(Nc1ccc(Cl)c(S(=O)(=O)N2CCNCC2)c1O)Nc1cccc(F)c1Cl [SB656933, 1-(2-chloro-3-fluorophenyl)-3-(4-chloro-2-hydroxy-3-piperazin-1-ylsulfonylphenyl)urea]
- Potency as CXCR2 antagonist (CXCR2): same potency as SB225002
- Tolerability in clinical trials ([1]; human, in vivo): well tolerated at all doses

Compound: CC[C@@H](Nc1c(Nc2cccc(C(=O)N(C)C)c2O)c(=O)c1=O)c1ccc(C)o1 [SCH527123, 2-hydroxy-N,N-dimethyl-3-[[2-[[1(R)-(5-methyl-2-furanyl)propyl]amino]-3,4-dioxo-1-cyclobuten-1-yl]amino]benzamide]
- Adverse events in clinical trials ([1]; human, in vivo): no treatment-induced adverse events were observed
- Severe asthma ([1]; oral, clinical trials): modest improvement
- Sputum neutrophils ([1]; oral, clinical trials): reduction in sputum neutrophils

Compound: O=C(O)Cc1ccccc1Nc1c(Cl)cccc1Cl [diclofenac]
- Pain measured as withdrawal threshold, effect of painkiller (mice [3]; mice injected with hC03 and hB09G09, diclofenac 30 mg/kg, observed during 6 hours): apparent lack of effect

Compound: NCC1(CC(=O)O)CCCCC1 [gabapentin]
- Pain measured as withdrawal threshold, effect of painkiller (mice [3]; [7]): apparent lack of effect; also recorded: no detectable effect on pain

Compound: COc1ccc2cc([C@H](C)C(=O)O)ccc2c1 [naproxen]
- Pain measured as withdrawal threshold, effect of painkiller (mice [3]; [7]): apparent lack of effect; also recorded: no detectable effect on pain

Compound: CC(C)Cc1ccc([C@@H](C)C(=O)NS(C)(=O)=O)cc1 [reparixin, (2R)-2-[4-(2-methylpropyl)phenyl]-N-methylsulfonylpropanamide]
- ACPA-induced mechanical hypersensitivity, effect of treatment (mice [3]; mice i.v. monoclonal ACPA D10 and B2 (1 mg each), reparixin 30 mg/kg/day s.c. six consecutive days starting day 6, vs saline controls): partially reversed
- Tactile thresholds in naive mice (mice [3]; naive mice not injected with ACPAs, treatment for six days): did not affect tactile thresholds
- Pain measured as withdrawal threshold, effect of treatment (mice [3]; pain induced by human monoclonal ACPA hC03 (hG09 control), reparixin 30 mg/kg once a day starting day 1): attenuating effects
- ACPA-induced heat hypersensitivity, effect of treatment (mice [4]): partially reversed
- ACPA-induced sensitivity to cold, effect of treatment (mice [5]): attenuated sensitivity to cold
- Bone destruction induced by injected ACPA (ankle joints and tibia): completely reversed
- Activation of osteoclasts (osteoclasts): blocks the activation of osteoclasts

Compound: O=P(O)(O)C(O)(Cn1ccnc1)P(=O)(O)O [zoledronate]
- ACPA induced pain measured as withdrawal threshold, effect of osteoclast inhibitor (mice [3]; hD10/hB02 mAb 1 mg each, zoledronate for 10 days): dose-dependent effect; also recorded: dose dependent effect
- ACPA-induced increase of CXCL1 mRNA in the ankle joint [6]: efficiently prevented

Compound: epigallocatechin-3-gallate [EGCG]
- Induction of IL-8 production (RA synovial fibroblasts): inhibited the induction of IL-8 production
